Measurements taken from ChEMBL document CHEMBL3853274, “Ibogan, Aspidosperman, Vincamine, and Bisindole Alkaloids from a Malayan Tabernaemontana corymbosa: Iboga Alkaloids with C-20α Substitution” (J Nat Prod, 2016).
pIC50: −log10 of the molar value.

Experiments:
Type in all cases: functional, cell-based
[1] = Cytotoxicity against vincristine-sensitive human KB cells after 72 hrs by MTT assay
[2] = Cytotoxicity against vincristine-resistant human KB/VJ300 cells after 72 hrs by MTT assay; conditions: KB/VJ300, 72 h
[3] = Cytotoxicity against vincristine-resistant human KB/VJ300 cells in presence of 0.12 uM vincristine after 72 hrs by MTT assay; conditions: KB/VJ300, 72 h

Compound | pIC50 [1] | pIC50 [2] | pIC50 [3]
C/C=C1/CN(C)[C@H]2Cc3c([nH]c4ccccc34)[C@@H](c3ccc4c5c([nH]c4c3)[C@@H]3C[C@H]4C[C@H]([C@@H](C)O)[C@@H]3N(CC5)C4)C[C@@H]1[C@@H]2C(=O)OC | 5.48 | 5.57 | 5.89
C/C=C1/CN(C)[C@H]2Cc3c([nH]c4ccccc34)[C@@H](c3ccc4c5c([nH]c4c3)[C@@H]3C[C@H]4C[C@H]([C@H](C)O)[C@@H]3N(CC5)C4)C[C@@H]1[C@@H]2C(=O)OC | 5.34 | 5.39 | 5.74
C/C=C1/CN(C)[C@H]2Cc3c([nH]c4ccccc34)[C@@H](c3ccc4c5c([nH]c4c3)[C@@H]3C[C@H]4C[C@H](CC)[C@@H]3N(CC5)C4)C[C@@H]1[C@@H]2C(=O)OC | 5.92 | 5.85 | 6.05
